Test results as given in patent US20070117743A1, “New antitumoral compounds” (priority 2003, published 2007).
Where a SMILES comes first, the peptide text is derived from it. Bridges are numbered along the chain shown (N, C = ends). [ ]: non-standard residue; d: D form. The star is where a group is joined. d(aIle) = CC[C@H](C)[C@@H](N)C(=O)O; d(aThr) = C[C@@H](O)[C@@H](N)C(=O)O; Hexanoyl(5-Me) = CC(C)CCCC(=O)*; Orn = NCCC[C@H](N)C(=O)O; Dhb = C/C=C(\N)C(=O)O

Assays:
Type in all cases: cell-based, human
[1] = test system: SK-MEL-28; test: SRB colorimetric assay of cell growth and viability, SK-MEL-28; conditions: MEL-28, 48 hours exposure; for CC50: read-out: LC50 MEL-28
[2] = test system: HT-29; test: SRB colorimetric assay of cell growth and viability, HT-29; conditions: HT-29, 48 hours exposure; for GI50: read-out: GI50 HT-29; for CC50: read-out: LC50 HT-29
[3] = test system: K-562; test: SRB colorimetric assay of cell growth and viability, K-562; conditions: K-562, 48 hours exposure; for CC50: read-out: LC50 K-562
[4] = test system: IGROV-1; test: SRB colorimetric assay of cell growth and viability, IGROV-1; conditions: IGROV; 48 hours exposure
[5] = test system: HeLa-APL; test: SRB colorimetric assay of cell growth and viability, HeLa-APL; conditions: HELA-APL, 48 hours exposure; for CC50: read-out: LC50 HELA-APL
[6] = test system: PANC-1; test: SRB colorimetric assay of cell growth and viability, PANC-1; conditions: PANC-1, 48 hours exposure; for CC50: read-out: LC50 PANC-1
[7] = test system: A-549; test: SRB colorimetric assay of cell growth and viability, A-549; conditions: A-549, 48 hours exposure; for GI50: read-out: GI50 A-549; for CC50: read-out: LC50 A-549
[8] = test system: HeLa; test: SRB colorimetric assay of cell growth and viability, HeLa; conditions: HELA, 48 hours exposure; for CC50: read-out: LC50 HELA
[9] = test system: DU-145; test: SRB colorimetric assay of cell growth and viability, DU-145; conditions: DU-145; 48 hours exposure
[10] = test system: LoVo-Dox; test: SRB colorimetric assay of cell growth and viability, LoVo-Dox; conditions: LOVO-DOX, 48 hours exposure; for CC50: read-out: LC50 LOVO-DOX
In short: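 Here, cells grow drug-free for 18 h, then receive sample dilutions from 10 down to 10^−8 μg/mL for 48 h at 37° C. Protein-bound SRB is solubilized in Tris and quantified at 490 nm.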

[11] = test system: IGROV-ET; test: SRB colorimetric assay of cell growth and viability, IGROV-ET; conditions: IGROV-ET, 48 hours exposure; for CC50: read-out: LC50 IGROV-ET
[12] = test system: LNCaP; test: SRB colorimetric assay of cell growth and viability, LNCaP; conditions: LN-caP, 48 hours exposure; for CC50: read-out: LC50 LN-caP
[13] = test system: SK-BR-3; test: SRB colorimetric assay of cell growth and viability, SK-BR-3; conditions: SK-BR-3; 48 hours exposure

## C/C=C1\NC(=O)[C@H](Cc2ccccc2)NC(=O)[C@@H](C(C)C)NC(=O)[C@@H]([C@@H](C)CC)NC(=O)[C@H](NC(=O)[C@H](NC(=O)[C@H](CCCN)NC(=O)[C@H]2CCCN2C(=O)[C@H](NC(=O)[C@@H](NC(=O)[C@H](CCCN)NC(=O)[C@H](NC(=O)CCCC(C)C)C(C)C)C(C)C)C(C)C)[C@@H](C)CC)[C@@H](C)OC(=O)[C@H](C(C)C)NC1=O [Compound 116, [Orn^12]-KF] ({Hexanoyl(5-Me)}-[dV][Orn]V[dV][dP][Orn][d(aIle)][d(aThr)][d(aIle)][dV]F[Dhb]V; ester 8-C)
[1]
  GI50: 4.32 µM
  TGI MEL-28: 6.71E−06 Molar
  CC50: 6.71 µM
[2]
  TGI HT-29: 3.88E−06 Molar
  GI50: 2.24 µM
  CC50: 6.71 µM
[3]
  GI50: 0.919 µM
  TGI K-562: 2.34E−06 Molar
  CC50: 5.94 µM
[4]
  GI50: 2.05 µM
  LC50 (concentration causing 50% net cell killing): 6.71 µM
  TGI IGROV: 3.86E−06 Molar
[5]
  GI50: 3 µM
  TGI HELA-APL: 6.71E−06 Molar
  CC50: 6.71 µM
[6]
  GI50: 6.08 µM
  TGI PANC-1: 6.71E−06 Molar
  CC50: 6.71 µM
[7]
  TGI A-549: 6.71E−06 Molar
  GI50: 6.71 µM
  CC50: 6.71 µM
[8]
  GI50: 1.54 µM
  TGI HELA: 3.35E−06 Molar
  CC50: 6.71 µM
[9]
  GI50: 3.32 µM
  LC50 (concentration causing 50% net cell kill): 6.71 µM
  TGI DU-145: 6.71E−06 Molar
[10]
  GI50: 1.94 µM
  TGI LOVO-DOX: 3.71E−06 Molar
  CC50: 6.71 µM
[11]
  GI50: 1.87 µM
  TGI IGROV-ET: 3.23E−06 Molar
  CC50: 5.55 µM
[12]
  GI50: 1.54 µM
  TGI LN-caP: 3.10E−06 Molar
  CC50: 6.24 µM
[13]
  GI50: 1.45 µM
  LC50: 5.51 µM
  TGI SK-BR-3: 2.82E−06 Molar

## C/C=C1\NC(=O)[C@H](Cc2ccccc2)NC(=O)[C@@H](C(C)C)NC(=O)[C@@H]([C@@H](C)CC)NC(=O)[C@H](NC(=O)[C@H](NC(=O)[C@H](CCCN)NC(=O)[C@H]2CCCN2C(=O)[C@H](NC(=O)[C@@H](NC(=O)CNC(=O)[C@H](NC(=O)CCCC(C)C)C(C)C)C(C)C)C(C)C)[C@@H](C)CC)[C@@H](C)OC(=O)[C@H](C(C)C)NC1=O [Compound 111, [Gly^12]-KF] ({Hexanoyl(5-Me)}-[dV]GV[dV][dP][Orn][d(aIle)][d(aThr)][d(aIle)][dV]F[Dhb]V; ester 8-C)
[1]
  GI50: 0.25 µM
  TGI MEL-28: 6.31E−07 Molar
  CC50: 2.9 µM
[2]
  TGI HT-29: 2.59E−06 Molar
  GI50: 0.511 µM
  CC50: 6.97 µM
[3]
  GI50: 0.144 µM
  TGI K-562: 3.66E−07 Molar
  CC50: 2.06 µM
[4]
  GI50: 0.167 µM
  LC50 (concentration causing 50% net cell killing): 1.33 µM
  TGI IGROV: 3.72E−07 Molar
[5]
  GI50: 0.355 µM
  TGI HELA-APL: 1.21E−06 Molar
  CC50: 3.51 µM
[6]
  GI50: 0.453 µM
  TGI PANC-1: 1.71E−06 Molar
  CC50: 5.81 µM
[7]
  TGI A-549: 2.59E−06 Molar
  GI50: 1.09 µM
  CC50: 6.16 µM
[8]
  GI50: 1.26 µM
  TGI HELA: 2.94E−06 Molar
  CC50: 6.86 µM
[9]
  GI50: 0.725 µM
  LC50 (concentration causing 50% net cell kill): 6.97 µM
  TGI DU-145: 2.53E−06 Molar
[10]
  GI50: 0.324 µM
  TGI LOVO-DOX: 1.24E−06 Molar
  CC50: 4.39 µM
[11]
  GI50: 0.264 µM
  TGI IGROV-ET: 1.00E−06 Molar
  CC50: 6.97 µM
[12]
  GI50: 0.4 µM
  TGI LN-caP: 6.97E−06 Molar
  CC50: 6.97 µM
[13]
  GI50: 0.41 µM
  LC50: 5.94 µM
  TGI SK-BR-3: 1.54E−06 Molar
